Data on twelve molecules can be found in EP0623343A1, “Ketamine analogues for the treatment of thrombocytopenia” (GENENTECH, INC., priority 1993, dated 1994).

Structures are written as SMILES. Like-named read-outs stand apart in the source and are kept apart here. A value given as a limit tells only on which side of the number the result lay.

The nature of experiment [1]: Thrombopoeitic activity in various assays (not specified further). The note with it: for thrombopoeitic activity in various assays: no activity at concentrations as high as 200 µM.
A further experiment concerns DAMI cells. Put plainly: DAMI assay measuring endomitotic activity (polyploidization) of DAMI cells. The note with it: for DAMI: Thrombopoietic activity, concentration at which active.
Another experiment relates to CMK cells. Put plainly: CMK assay for thrombopoietin (TPO) induction of platelet antigen GPIIbIIIa expression. The following applies: for minimal effective concentration: Homo sapiens, CMK; for CMK: Thrombopoietic activity, concentration at which active.
A further experiment deals with C57BL6 mice. Put plainly: Thrombopoietin (TPO) in vivo assay (Mouse Platelet Rebound Assay). The note with it: @ 2 mg/mouse/d; IP injections on days 5 and 6 after anti-platelet serum. The protocol: Thrombopoietin (TPO) in vivo assay (Mouse Platelet Rebound Assay)
In vivo Assay for ³⁵S Determination of Platelet Production
C57BL6 mice (obtained from Charles River) were injected intraperitoneally (IP) with 1 ml goat anti-mouse platelet serum (6 amps) on day 1 to produce thrombocytopenia. On days 5 and 6, mice were given two IP injections of the factor or PBS as the control. On day 7, thirty µCi of Na₂³⁵SO₄ in 0.1 ml saline were injected intravenously and the percent ³⁵S incorporation of the injected dose into circulating platelets was measured in blood samples obtained from treated and control mice. Platelet counts and leukocyte counts were made at the same time from blood obtained from the retro-orbital sinus.

The conditions of experiment [2]: after 1-2 weeks treatment; patient had 37,000-58,000/µl before; cited from earlier work.
[3] abbreviates: read-out: DAMI(µM), Thrombopoietic activity, concentration at which active, 'inactive @200' given as >200.
The mark [4] stands for this setting: read-out: CMK(µM), Thrombopoietic activity, concentration at which active, 'inactive @200' given as >200.
[5] abbreviates: read-out: active at concentration in the DAMI assay.
[6] abbreviates: read-out: active at concentration in the CMK assay.
Where [7] appears, read: read-out: active / inactive at concentration in the DAMI assay.

For `NC1(c2ccccc2Cl)CCCCC1=O` (stereo not shown) [IV, 2-(amino)-2-(2-chlorophenyl) cyclohexanone, reference compound], the “thrombopoeitic activity in various assays” value in experiment [1] is listed as over 200 µM. Moreover, the minimal effective concentration with DAMI cells (setting [3]) and with CMK cells (setting [4]) was over 200 µM throughout.

Consider `NC1(c2ccccc2Cl)CCC=CC1=O` (single isomer, unassigned; (-)) [(-)-V, (-)-6-amino-6-(2-chlorophenyl)-2-cyclohexen-1-one], for which the “DAMI” value in the experiment with DAMI cells ('inactive @200' given as >200) turned out to be 12 µM. In addition, the minimal effective concentration in the experiment with DAMI cells (setting [5]) and in the experiment with CMK cells (setting [6]) was 6 µM each time. Besides, the “CMK” value in the experiment on CMK cells ('inactive @200' given as >200) worked out at 6 µM.

Consider `O=C(CCCC[C@@H]1SC[C@@H]2NC(=O)N[C@@H]21)NC1(c2ccccc2Cl)CCC=CC1=O` (stereo partly shown) [VII, 6-biotinoylamino-6-(2-chlorophenyl)-2-cyclohexen-1-one], for which the minimal effective concentration with DAMI cells (setting [3]) worked out at 25 µM; in the experiment on CMK cells (setting [4]) it was 12 µM.

With `CC(=O)NC1(c2ccccc2Cl)CCC=CC1=O` (stereo not shown) [VI, 6-acetylamino-6-(2-chlorophenyl)-2-cyclohexen-1-one], the “thrombopoeitic activity compared with 5,6-dehydronorketamine” value in experiment [1] (N-acylated derivative) is on record as “even more active”. Further, the results for the minimal effective concentration with DAMI cells (setting [3]) and in the experiment with CMK cells (setting [4]) were 12 µM and 6 µM, respectively.

Consider `O=C1C=CCCC1` [cyclohexenone, reference compound], for which the minimal effective concentration with DAMI cells (setting [3]) and with CMK cells (setting [4]) was 200 µM throughout.

On to `CSCCC(=O)NC1(c2ccccc2Cl)CCC=CC1=O` (stereo not shown) [EXAMPLE V, 6-(2-chlorophenyl)-6-(3-(methylthio)propanoyl)amino-2-cyclohexen-1-one], for which, in the experiment on CMK cells (setting [6]), the minimal effective concentration was found to be 6 µM.

On to `NC1(c2ccccc2Cl)CCC=CC1=O` (stereo not shown) [V, 6-amino-6-(2-chlorophenyl)-2-cyclohexen-1-one], for which the “In vivo(% ctl.@ mg/mouse/d)” value with C57BL6 mice is 131 @ 2 % ctl. Further, in the experiment on DAMI cells ('inactive @200' given as >200), the “DAMI” value came out at 25 µM. Also, the minimal effective concentration is 30 µM in the experiment with DAMI cells (setting [7]), 6 µM with CMK cells (setting [4]) and 15 µM in the experiment on CMK cells (setting [6]).

For `NCC(=O)NC1(c2ccccc2Cl)CCC=CC1=O` (stereo not shown) [EXAMPLE IV, 6-(2-aminoacetyl)amino-6-(2-chlorophenyl)-2-cyclohexen-1-one], the minimal effective concentration in the experiment with DAMI cells (setting [5]) and in the experiment with CMK cells (setting [6]) was 6 µM throughout.

Consider `NC1(c2ccccc2Cl)CCC=CC1=O` (single isomer, unassigned; (+)) [(+)-V, (+)-6-amino-6-(2-chlorophenyl)-2-cyclohexen-1-one], for which, in the experiment with DAMI cells ('inactive @200' given as >200), the “DAMI” value is recorded as 12 µM. The “active at concentration in the CMK assay” value with CMK cells is 6 µm. Further, in the experiment with CMK cells ('inactive @200' given as >200), the “CMK” value is 6 µM.

On to `O=C1C=CC(=O)c2ccccc21` [1,4-naphthoquinone, reference compound], for which the minimal effective concentration was over 200 µM in the experiment on DAMI cells (setting [3]) and under 6 µM in the experiment on CMK cells (setting [4]).

Consider `CNC1(c2ccccc2Cl)CCCCC1=O` (stereo not shown) [ketamine (III), 2-(2-chlorophenyl)-2-(methylamino) cyclohexanone, reference compound], for which, in experiment [1], the “thrombopoeitic activity in various assays” value was over 200 µM. For the same molecule, the minimal effective concentration in the experiment on DAMI cells (setting [3]) and in the experiment on CMK cells (setting [4]) was over 200 µM in each case.

For `Cc1nnc2n1-c1sc(CCC(=O)N3CCOCC3)cc1C(c1ccccc1Cl)=NC2` [WEB 2086, 4-(2-chlorphenyl)-9-methyl-2-[3-(4-morpholinyl)-3-propanon-1-yl]6H-thieno[3,2,f][1,2,4]triazolo[4,3,a,][1,4] diazepin, reference compound], the platelet counts in experiment [2] is given as 140,000-190,000 /µl. For the same molecule, the minimal effective concentration in the experiment with DAMI cells (setting [3]), with DAMI cells (setting [7]) and in the experiment on CMK cells (setting [4]) was over 200 µM throughout.
